Reference: patent publication US5929236A, “2-substituted morpholine and thiomorpholine derivatives as GABA-B antagonists” (Schering Corporation, priority 1995, dated 1999)

Key:
[1] = test system: Respiratory Depressant Effect of Baclofen; assay: Reversal of the Respiratory Depressant Effect of Baclofen via icv Administration; assay type: in vivo, guinea pig; settings: 50 μg in 10 μl of vehicle, icv, 5 min before measurement of ventilation; mean ± SEM
Protocol: (§1) Animal Model for Respiratory Depression:
(§2) Place unanesthetized guinea pigs in a head-out plethysmograph and expose to a CO2 enriched gas mixture (10% CO2, 21% O2, 69% N2) for 10 min., (see Danko, et al., J. Pharm. Methods, 19, 165-173 (1988)). Plethysmograph pressure is detected with a transducer connected to a chart recorder. Minute ventilation is calculated as the product of tidal volume and respiratory frequency. The compound to be tested is administered orally, subcutaneously (sc), intraperitoneally (ip) or via an intracerebroventricular route (icv). Baclofen (3 mg/kg, sc) was given 30 min before exposure to the CO2 enriched gas. When given by the oral route, the compounds is administered 1, 3, 5 or 7 h before exposure to CO2 enriched gas. A 40 or 30 min. preteratment is used for the subcutaneous and intraperitoneal routes, respectively. The vehicle for oral, sc or ip administration is saline. For icv administration, single icv cannulae are placed in the lateral ventricle of anesthetized guinea pigs, (see McLeod, et al., Eur. J. Pharmacol., 209, 141-142 (1988)). The animals are allowed to recover approximately one week prior to use for ventilation experiments. The vehicle for icv administration is artificial cerebrospinal fluid (CSF).

[2] = test system: seizure in rats induced by GBL; assay: Prevention of seizure in rats induced by GBL; assay type: in vivo, rat; settings: 100 mg/kg GBL (ip)
Protocol: Animal Models for Absence Seizures
A. Snead, Eur. J. Pharmacol., 213, 343-349 (1992), teaches a pharmacological model for testing the effectiveness of GABAB antagonists in preventing seizures induced by intra-peritoneal (ip) administration of either γ-butyrolactone (GBL) or pentylenetetrazole (PTZ) to rats. The animal is treated with the test compound, then monitored after being subjected to a dose of either GBL or PTZ sufficient to induce seizures.

[3] = test system: Respiratory Depressant Effect of Baclofen; assay: Inhibition of Respiratory Depressant Effect of Baclofen; assay type: in vivo, guinea pig; settings: for % Inhibition: mean ± SEM; for ED50: Cavia porcellus
Protocol: as §1
as §2, with “When given by the oral route, the compounds is administered 1, 3, 5 or 7 h before exposure to CO2 enriched gas.” left out

GABAB receptors = target: T1, GABAB receptors (Rattus norvegicus, UniProt Q9Z0U4); assay: GABAB Receptor Binding Assay ([3H]GABA, rat brain synaptosomes); settings: 5 nM [3H]GABA, rat brain synaptosomes, 20° C., 30 min
T1 construct: Rat brain synaptosomes are used as a source of GABAB receptors; from tissue; host or cells: rat brain synaptosomes
Protocol: GABAB Receptor Binding Assay
The percentage inhibition of GABA binding to GABAB receptors is measured by tritiated GABA ([^3 H]GABA) determination of the degree of binding by scintillation counting. Rat brain synaptosomes are used as a source of GABAB receptors. An incubation medium is prepared from the following: 20 μg/mL of the compound to be tested as a solution in 1% DMSO/water; 5 nM [^3 H]GABA; 50 mM Tris buffer (pH 7.5); and 2.5 mM CaCl2. The medium also contains 40 μM isoguvacine to selectively block binding to GABAA receptors. The synaptosome (200 μg/mL) is added to the incubation medium and incubated for 30 minutes at 20° C. The incubation is terminated by filtration and counted to determine the percentage inhibition of [^3 H]-GABA binding. The results are reported as IC50 values for those compounds inhibiting [^3 H]-GABA binding by >50%.

T1 sequence (Q9Z0U4 17-960 limits assumed): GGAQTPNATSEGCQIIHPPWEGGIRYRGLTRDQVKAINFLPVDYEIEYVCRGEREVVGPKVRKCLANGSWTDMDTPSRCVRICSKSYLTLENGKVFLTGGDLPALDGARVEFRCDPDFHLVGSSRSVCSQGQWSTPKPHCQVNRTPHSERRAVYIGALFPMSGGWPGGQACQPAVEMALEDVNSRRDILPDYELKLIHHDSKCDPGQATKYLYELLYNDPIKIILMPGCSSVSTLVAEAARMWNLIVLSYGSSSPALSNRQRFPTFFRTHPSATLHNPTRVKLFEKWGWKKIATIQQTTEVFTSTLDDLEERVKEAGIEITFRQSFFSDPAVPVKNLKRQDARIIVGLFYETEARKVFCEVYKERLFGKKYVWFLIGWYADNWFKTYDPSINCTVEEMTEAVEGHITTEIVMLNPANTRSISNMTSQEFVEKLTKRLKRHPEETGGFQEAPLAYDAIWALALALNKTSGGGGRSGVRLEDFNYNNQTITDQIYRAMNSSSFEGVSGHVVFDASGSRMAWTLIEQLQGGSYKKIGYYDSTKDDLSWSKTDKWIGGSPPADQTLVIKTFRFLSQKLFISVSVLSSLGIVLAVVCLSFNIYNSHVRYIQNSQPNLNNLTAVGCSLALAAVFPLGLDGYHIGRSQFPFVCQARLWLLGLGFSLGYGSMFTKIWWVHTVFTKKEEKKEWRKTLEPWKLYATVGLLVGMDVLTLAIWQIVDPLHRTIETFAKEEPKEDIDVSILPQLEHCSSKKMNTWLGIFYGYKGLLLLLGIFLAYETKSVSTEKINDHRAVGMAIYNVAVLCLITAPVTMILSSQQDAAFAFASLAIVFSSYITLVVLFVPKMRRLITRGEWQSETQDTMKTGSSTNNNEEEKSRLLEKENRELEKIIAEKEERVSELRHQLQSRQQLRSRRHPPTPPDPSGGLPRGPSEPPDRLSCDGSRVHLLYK
T1 sequence (O88871 41-940 partner): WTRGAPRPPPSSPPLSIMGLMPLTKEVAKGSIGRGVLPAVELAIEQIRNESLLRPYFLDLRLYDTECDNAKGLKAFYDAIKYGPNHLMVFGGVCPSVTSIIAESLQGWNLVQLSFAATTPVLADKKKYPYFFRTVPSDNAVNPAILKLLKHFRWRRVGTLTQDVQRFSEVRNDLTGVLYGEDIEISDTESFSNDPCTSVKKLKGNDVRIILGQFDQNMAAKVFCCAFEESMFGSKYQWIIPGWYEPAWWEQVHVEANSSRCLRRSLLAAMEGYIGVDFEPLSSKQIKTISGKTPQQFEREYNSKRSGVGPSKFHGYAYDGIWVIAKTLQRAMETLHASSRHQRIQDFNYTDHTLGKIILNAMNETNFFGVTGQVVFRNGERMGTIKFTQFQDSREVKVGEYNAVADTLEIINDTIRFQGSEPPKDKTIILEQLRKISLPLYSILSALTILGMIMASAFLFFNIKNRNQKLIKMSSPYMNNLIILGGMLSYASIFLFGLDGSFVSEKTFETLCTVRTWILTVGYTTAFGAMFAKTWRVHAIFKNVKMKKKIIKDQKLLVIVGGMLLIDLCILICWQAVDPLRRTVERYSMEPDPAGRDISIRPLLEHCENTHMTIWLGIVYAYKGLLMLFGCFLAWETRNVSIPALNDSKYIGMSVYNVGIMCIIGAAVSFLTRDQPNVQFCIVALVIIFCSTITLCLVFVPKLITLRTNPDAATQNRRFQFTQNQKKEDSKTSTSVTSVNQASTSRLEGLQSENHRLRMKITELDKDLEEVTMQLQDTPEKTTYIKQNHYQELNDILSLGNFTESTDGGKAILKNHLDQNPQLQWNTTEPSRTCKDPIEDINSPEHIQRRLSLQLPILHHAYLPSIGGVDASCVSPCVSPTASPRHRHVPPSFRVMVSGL

Question: For CC1(C)COC(CC(=O)O)CN1 (single isomer, unassigned) [Example 6A], which “% Inhibition” value [1] is on record?
Answer: The value was 99 ± 23%.

Question: What about the SWD duration ([2]; 0.75 mg/kg, 20 min) of the same compound?
Answer: Its SWD duration is 970 s.

Question: And the SWD duration ([2]; 0.75 mg/kg, 40 min)?
Answer: Its SWD duration is 1150 s.

Question: And the SWD duration ([2]; 0.75 mg/kg, 60 min)?
Answer: Its SWD duration is 500 s.

Question: What about the SWD duration ([2]; 0.75 mg/kg, 80 min) of the same compound?
Answer: Its SWD duration is 280 s.

Question: And the SWD duration ([2]; 0.75 mg/kg, 100 min)?
Answer: Its SWD duration is 50 s.

Question: And the SWD duration ([2]; 0.75 mg/kg, 120 min)?
Answer: The SWD duration was 0 s.

Question: And the SWD duration ([2]; 1.5 mg/kg, 20 min)?
Answer: The SWD duration was 560 s.

Question: And the SWD duration ([2]; 1.5 mg/kg, 40 min)?
Answer: The SWD duration was 540 s.

Question: What about the SWD duration ([2]; 1.5 mg/kg, 60 min) of the same compound?
Answer: The SWD duration was 0 s.

Question: What about the SWD duration ([2]; 1.5 mg/kg, 80 min) of the same compound?
Answer: Its SWD duration is 0 s.

Question: What about the SWD duration ([2]; 1.5 mg/kg, 100 min) of the same compound?
Answer: Its SWD duration is 0 s.

Question: What about the SWD duration ([2]; 1.5 mg/kg, 120 min) of the same compound?
Answer: Its SWD duration is 0 s.

Question: What about the SWD duration ([2]; 3.0 mg/kg, 20 min) of the same compound?
Answer: The SWD duration was 0 s.

Question: And the SWD duration ([2]; 3.0 mg/kg, 40 min)?
Answer: The SWD duration was 0 s.

Question: And the SWD duration ([2]; 3.0 mg/kg, 60 min)?
Answer: The SWD duration was 0 s.

Question: And the SWD duration ([2]; 3.0 mg/kg, 80 min)?
Answer: The SWD duration was 0 s.

Question: What about the SWD duration ([2]; 3.0 mg/kg, 100 min) of the same compound?
Answer: The SWD duration was 0 s.

Question: And the SWD duration ([2]; 3.0 mg/kg, 120 min)?
Answer: Its SWD duration is 0 s.

Question: What about the “% Inhibition” value ([3]; 0.3 mg/kg ip) of the same compound?
Answer: The value was 39 ± 10%.

Question: What about the “% Inhibition” value ([3]; 0.3 mg/kg sc) of the same compound?
Answer: The value was 27 ± 6%.

Question: And the “% Inhibition” value ([3]; 1.0 mg/kg ip)?
Answer: The value was 32 ± 7%.

Question: What about the “% Inhibition” value ([3]; 1.0 mg/kg oral, 60 min prior to baclofen) of the same compound?
Answer: Its value is 36 ± 13%.

Question: And the “% Inhibition” value ([3]; 1.0 mg/kg sc)?
Answer: The value was 66 ± 7%.

Question: And the “% Inhibition” value ([3]; 3.0 mg/kg ip)?
Answer: Its value is 59 ± 7%.

Question: And the “% Inhibition” value ([3]; 3.0 mg/kg oral, 60 min prior to baclofen)?
Answer: The value was 51 ± 13%.

Question: And the “% Inhibition” value ([3]; 3.0 mg/kg sc)?
Answer: The value was 97 ± 25%.

Question: And the “% Inhibition” value ([3]; 10 mg/kg ip)?
Answer: Its value is 100 ± 9%.

Question: What about the “% Inhibition” value ([3]; 10 mg/kg oral, 60 min prior to baclofen) of the same compound?
Answer: Its value is 68 ± 13%.

Question: What about the “% Inhibition” value ([3]; 10 mg/kg sc) of the same compound?
Answer: The value was 99 ± 11%.

Question: And the “% Inhibition” value ([3]; 30 mg/kg oral, 60 min prior to baclofen)?
Answer: Its value is 78 ± 29%.

Question: And the ED50 ([3]; ip)?
Answer: The ED50 was 1.9 mg/kg.

Question: And the ED50 ([3]; sc)?
Answer: Its ED50 is 0.63 mg/kg.

Question: And the ED50 ([3]; oral, 60 min prior to baclofen)?
Answer: The ED50 was 3 mg/kg.

Question: And the IC50 (GABAB receptors)?
Answer: Its IC50 is 2000 nM.
